Laboratory results: ChEMBL document CHEMBL1759855, “Synthesis and innate immunosuppressive effect of 1,2-cyclopentanediol derivatives” (Eur J Med Chem, 2011)

Columns and labels:
[1] = Cytotoxicity against Drosophila S2 cells by MTT assay; format: cell-based; conditions: Drosophila melanogaster
Drosophila = assay: Ex vivo immunosuppressive activity in Drosophila larvae assessed as inhibition of IMD signaling pathway by beta-galactosidase reporter gene assay; format: functional, organism-based
HUVEC [2] = assay: Immunosuppressive activity in human HUVEC assessed as inhibition of TNF-alpha-induced IL8 production at 50 ug/mL after 12 hrs by ELISA relative to control; format: functional; set-up: scale not given: the % may be the effect or the level left
HUVEC [3] = assay: Cytotoxicity against human HUVEC assessed as cell viability at 50 ug/ml; format: cell-based

O=C(/C=C/[C@H]1C[C@@H](O)[C@@H](O)C1)Nc1ccccc1
EC50 [1]: > 200 µM
EC50 (Drosophila): 4.5 µM
Activity (HUVEC [2]): 70%
Activity (HUVEC [3]): Non-toxic

COC(=O)/C=C/[C@H]1C[C@@H](O)[C@@H](O)C1
EC50 [1]: > 350 µM
EC50 (Drosophila): > 350 µM

O=C(/C=C/[C@H]1C[C@@H](O)[C@@H](O)C1)Nc1ccc(F)cc1
EC50 [1]: > 180 µM
EC50 (Drosophila): > 180 µM

NC(=O)/C=C/[C@H]1C[C@@H](O)[C@@H](O)C1
EC50 [1]: > 250 µM
EC50 (Drosophila): 19 µM

O=C(/C=C/[C@H]1C[C@@H](O)[C@@H](O)C1)NC1CC1
EC50 [1]: > 250 µM
EC50 (Drosophila): 240 µM

CNC(=O)CCC[C@H]1C[C@@H](O)[C@@H](O)C1
EC50 [1]: > 250 µM
EC50 (Drosophila): 8.4 µM
Activity (HUVEC [2]): 70%
Activity (HUVEC [3]): Non-toxic

O=C(/C=C/[C@H]1C[C@@H](O)[C@@H](O)C1)N1CCCCC1
EC50 [1]: > 250 µM
EC50 (Drosophila): 180 µM

CCNC(=O)/C=C/[C@H]1C[C@@H](O)[C@@H](O)C1
EC50 [1]: > 250 µM
EC50 (Drosophila): 250 µM

O=C(/C=C/[C@H]1C[C@@H](O)[C@@H](O)C1)Nc1ccc(Cl)cc1
EC50 [1]: > 180 µM
EC50 (Drosophila): > 180 µM

C/C=C/[C@H]1C[C@@H](O)[C@@H](O)C1
EC50 [1]: > 350 µM
EC50 (Drosophila): 100 µM

O=C(/C=C/[C@H]1C[C@@H](O)[C@@H](O)C1)Nc1ccc(Cl)c(Cl)c1
EC50 [1]: > 160 µM
EC50 (Drosophila): 56 µM

CCC[C@H]1C[C@@H](O)[C@@H](O)C1
EC50 [1]: > 350 µM
EC50 (Drosophila): 100 µM

O=C(/C=C/[C@H]1C[C@@H](O)[C@@H](O)C1)Nc1ccncc1
EC50 [1]: > 200 µM
EC50 (Drosophila): > 20 µM

O=C(/C=C/[C@H]1C[C@@H](O)[C@@H](O)C1)Nc1ccc(C(F)(F)F)cc1
EC50 [1]: > 160 µM
EC50 (Drosophila): > 160 µM

CNC(=O)CCCC[C@H]1C[C@@H](O)[C@@H](O)C1
EC50 [1]: > 250 µM
EC50 (Drosophila): > 250 µM

CNC(=O)C[C@H]1C[C@@H](O)[C@@H](O)C1
EC50 [1]: > 250 µM
EC50 (Drosophila): 55 µM

O=C(/C=C/[C@H]1C[C@@H](O)[C@@H](O)C1)NO
EC50 [1]: > 250 µM
EC50 (Drosophila): 13 µM

CNC(=O)CC[C@H]1C[C@@H](O)[C@@H](O)C1
EC50 [1]: > 250 µM
EC50 (Drosophila): 15 µM

CC(C)(C)c1ccc(NC(=O)/C=C/[C@H]2C[C@@H](O)[C@@H](O)C2)cc1
EC50 [1]: > 180 µM
EC50 (Drosophila): 4.4 µM
Activity (HUVEC [3]): Toxic

CCCCCCOC(=O)/C=C/[C@H]1C[C@@H](O)[C@@H](O)C1
EC50 [1]: > 350 µM
EC50 (Drosophila): 150 µM

CNS(=O)(=O)/C=C/[C@H]1C[C@@H](O)[C@@H](O)C1
EC50 [1]: > 250 µM
EC50 (Drosophila): 4 µM
Activity (HUVEC [2]): 70%
Activity (HUVEC [3]): Non-toxic

O=C(/C=C/[C@H]1C[C@@H](O)[C@@H](O)C1)Oc1ccccc1
EC50 [1]: > 200 µM
EC50 (Drosophila): 100 µM

CNC(=O)/C=C/C(CCO)CCO
EC50 [1]: > 250 µM
EC50 (Drosophila): > 250 µM

CCCCCC[C@H]1C[C@@H](O)[C@@H](O)C1
EC50 [1]: 110 µM
EC50 (Drosophila): 110 µM

CCCCNC(=O)/C=C/[C@H]1C[C@@H](O)[C@@H](O)C1
EC50 [1]: > 250 µM
EC50 (Drosophila): > 250 µM

COc1ccc(NC(=O)/C=C/[C@H]2C[C@@H](O)[C@@H](O)C2)cc1
EC50 [1]: > 180 µM
EC50 (Drosophila): 3.1 µM
Activity (HUVEC [3]): Toxic

CNC(=O)/C=C/[C@H]1C[C@@H](O)[C@@H](O)C1
EC50 [1]: > 250 µM
EC50 (Drosophila): 5.4 µM
Activity (HUVEC [2]): 70%
Activity (HUVEC [3]): Non-toxic

CCOC(=O)/C=C/[C@H]1C[C@@H](O)[C@@H](O)C1
EC50 [1]: > 350 µM
EC50 (Drosophila): 100 µM

O=C(/C=C/[C@H]1C[C@@H](O)[C@@H](O)C1)Nc1ccc([N+](=O)[O-])cc1
EC50 [1]: > 170 µM
EC50 (Drosophila): > 170 µM

CN(C)c1ccc(NC(=O)/C=C/[C@H]2C[C@@H](O)[C@@H](O)C2)cc1
EC50 [1]: > 170 µM
EC50 (Drosophila): 19 µM

C/C=C/[C@@H]1C[C@@H](O)[C@@H](O)C1
EC50 [1]: > 350 µM
EC50 (Drosophila): 350 µM

O=C(O)/C=C/[C@H]1C[C@@H](O)[C@@H](O)C1
EC50 [1]: > 350 µM
EC50 (Drosophila): 110 µM

CC(=O)c1ccc(NC(=O)/C=C/[C@H]2C[C@@H](O)[C@@H](O)C2)cc1
EC50 [1]: > 180 µM
EC50 (Drosophila): > 180 µM

CN(C)C(=O)/C=C/[C@H]1C[C@@H](O)[C@@H](O)C1
EC50 [1]: > 250 µM
EC50 (Drosophila): 120 µM

Cc1ccc(NC(=O)/C=C/[C@H]2C[C@@H](O)[C@@H](O)C2)cc1
EC50 [1]: > 190 µM
EC50 (Drosophila): 190 µM
